Experimental data taken from ChEMBL document CHEMBL1201862, “PubChem BioAssay data set” (2004).
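These data come from cells grown in 96-well plates and exposed to compound for 48 hours at five concentrations. GI50 is the concentration that inhibits growth by half.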 Activity calls are given as the source filed them. Cut-off read from the data, not from the text of the source: active = GI50 up to about 1.1 µM and inactive = higher.

Assays:
Assay in all cases: NCI tumour cell line growth inhibition, 48 h
UACC-257 = test system: UACC-257
UACC-62 = test system: UACC-62
U-251 = test system: U-251
SF-295 = test system: SF-295
MDA-MB-231 = test system: MDA-MB-231
NCI/ADR-RES = test system: NCI/ADR-RES
SK-MEL-28 = test system: SK-MEL-28
SR = test system: SR
K562 = test system: K562
SK-MEL-2 = test system: SK-MEL-2
CCRF-CEM = test system: CCRF-CEM
MCF7 = test system: MCF7
SK-MEL-5 = test system: SK-MEL-5
KM12 = test system: KM12
NCI-H23 = test system: NCI-H23
IGROV-1 = test system: IGROV-1
T47D = test system: T47D
HCT-15 = test system: HCT-15
UO-31 = test system: UO-31
NCI-H460 = test system: NCI-H460

Structure (SMILES)	GI50 (UACC-257)	GI50 (UACC-62)	GI50 (U-251)	GI50 (SF-295)	GI50 (MDA-MB-231)	GI50 (NCI/ADR-RES)	GI50 (SK-MEL-28)	GI50 (SR)	GI50 (K562)	GI50 (SK-MEL-2)	GI50 (CCRF-CEM)	GI50 (MCF7)	GI50 (SK-MEL-5)	GI50 (KM12)	GI50 (NCI-H23)	GI50 (IGROV-1)	GI50 (T47D)	GI50 (HCT-15)	GI50 (UO-31)	GI50 (NCI-H460)
COc1ccccc1NC(=S)N/N=C1\C(=O)Nc2ccccc21	> 100 µM (inactive)	> 100 µM (inactive)	> 100 µM (inactive)	> 100 µM (inactive)	> 100 µM (inactive)	> 100 µM (inactive)	3.29 µM (inactive)	> 100 µM (inactive)	> 100 µM (inactive)	> 100 µM (inactive)	> 100 µM (inactive)	42.6 µM (inactive)	73.5 µM (inactive)	> 100 µM (inactive)	> 100 µM (inactive)	> 100 µM (inactive)	> 100 µM (inactive)	> 100 µM	> 100 µM (inactive)	> 100 µM (inactive)
O=[N+]([O-])c1cc([As](Br)c2ccc(O)c([N+](=O)[O-])c2)ccc1O	1.69 µM (inactive)	1.47 µM (inactive)	1.82 µM (inactive)	1.8 µM (inactive)	1.39 µM (inactive)	2.77 µM (inactive)	1.63 µM (inactive)	0.383 µM (active)	0.462 µM (active)	0.746 µM (active)	0.167 µM (active)	1.27 µM (inactive)	1.49 µM (inactive)	2 µM (inactive)	2.17 µM (inactive)	1.47 µM (inactive)	0.204 µM (active)	1.99 µM	1.61 µM (inactive)	3.12 µM (inactive)
COc1cc2c(c3c1c(=O)c1ccccc1n3C)C=CC1(CCCCC1)O2	> 7.73 µM (inactive)	4.14 µM (inactive)	4.03 µM (inactive)	1.44 µM (inactive)	4.83 µM (inactive)	3.65 µM (inactive)	4.8 µM (inactive)	1.95 µM (inactive)	1.56 µM (inactive)	3.35 µM (inactive)	2.55 µM (inactive)	2.31 µM (inactive)	2.15 µM (inactive)	0.603 µM (active)	> 7.67 µM (inactive)	2.15 µM (inactive)	4.41 µM (inactive)	3.08 µM	0.1 µM (active)	3.82 µM (inactive)
NC(=S)N/N=C\c1nccc2ccccc12	1.42 µM (inactive)	0.136 µM (active)	0.281 µM (active)	0.187 µM (active)	0.46 µM (active)	0.285 µM (active)	0.36 µM (active)	0.126 µM (active)	0.731 µM (active)	6 µM (inactive)	0.27 µM (active)	0.253 µM (active)	0.143 µM (active)	0.885 µM (active)	0.314 µM (active)	0.42 µM (active)	2.69 µM (inactive)	0.369 µM	0.36 µM (active)	0.267 µM (active)
CC1(C)COC(c2cccc(C(=O)c3ccccc3)c2)=N1	26.2 µM (inactive)	41.9 µM (inactive)	70 µM (inactive)	40.7 µM (inactive)	33.4 µM (inactive)	31.6 µM (inactive)	42.8 µM (inactive)	32.3 µM (inactive)	36.2 µM (inactive)	> 100 µM (inactive)	39.4 µM (inactive)	47.8 µM (inactive)	17.1 µM (inactive)	44.6 µM (inactive)	34.1 µM (inactive)	> 100 µM (inactive)	25.7 µM (inactive)	36.2 µM	29.1 µM (inactive)	59.4 µM (inactive)
CCOC(=O)Cn1c(=O)c2cc(-c3ccccc3)cc3c(Cl)nc4c(OC)c(OC)cc1c4c32	18.6 µM (inactive)	14.8 µM (inactive)	31.2 µM (inactive)	40.7 µM (inactive)	17.6 µM (inactive)	16.9 µM (inactive)	21 µM (inactive)	1.99 µM (inactive)	13.8 µM (inactive)	15 µM (inactive)	5.16 µM (inactive)	9.14 µM (inactive)	24.7 µM (inactive)	31.6 µM (inactive)	15.3 µM (inactive)	13 µM (inactive)	16 µM (inactive)	15 µM	2.07 µM (inactive)	17.1 µM (inactive)
